Source: ChEMBL document CHEMBL6096738, “Optimization of Single Relaxin B-Chain Peptide Leads to the Identification of R2R01, a Potent, Long-Acting RXFP1 Agonist for Cardiovascular and Renal Diseases” (J Med Chem, 2025)
Starred links: 1 amine or outer side, 2 acyl side, 3 side chain; linkers in the order of their positions; H or OH if unused. Non-standard residues stand in square brackets, D forms with d. Residues, ends and D or L forms follow the SMILES beside them. Groups on a side chain read outwards from the residue. *: point of attachment. X3 = CCCCCCCCCCCCCCCCCC(=O)N[C@@H](CCC(=O)N[C@@H](CCC(=O)N[C@@H](CCC(=O)NCCCOCCOCCOCCCNC(=O)CCC(=O)NCCCOCCOCCOCCCNC(=O)CCC(=O)NCCCOCCOCCOCCCN*)C(=O)O)C(=O)O)C(=O)O; Suc = O=C(CCC(=O)[*:2])[*:1]; Aib = CC(C)(N)C(=O)O

Tests used:
[1] = Induction of mast cell degranulation in human LAD2 cells assessed as beta-hexosaminidase release by measuring maximal efficacy of 4-methylumbelliferyl N-acetyl-beta-D-glucosaminide hydrolysis at 10 uM incubated for 30 mins by plate reader analysis relative to control; format: toxicity, cell-based; details: probe 4-methylumbelliferyl N-acetyl-beta-D-glucosaminide
[2] = Induction of mast cell degranulation in human LAD2 cells assessed as beta-hexosaminidase release by measuring 4-methylumbelliferyl N-acetyl-beta-D-glucosaminide hydrolysis incubated for 30 mins by plate reader analysis; format: toxicity, cell-based; details: probe 4-methylumbelliferyl N-acetyl-beta-D-glucosaminide
[3] = biological target: T1, Relaxin receptor 1 (Homo sapiens) (UniProt Q9HBX9); assay: Agonist activity at human RXFP1 expressed in 2%HSA treated human OVCAR-5 cells assessed as intracellular cAMP accumulation by measuring maximal efficacy incubated for 30 mins with 2% HSA pretreated compound by HTRF assay relative to control; format: functional, cell-based; details: filed as agonist
T1 sequence (whole entry): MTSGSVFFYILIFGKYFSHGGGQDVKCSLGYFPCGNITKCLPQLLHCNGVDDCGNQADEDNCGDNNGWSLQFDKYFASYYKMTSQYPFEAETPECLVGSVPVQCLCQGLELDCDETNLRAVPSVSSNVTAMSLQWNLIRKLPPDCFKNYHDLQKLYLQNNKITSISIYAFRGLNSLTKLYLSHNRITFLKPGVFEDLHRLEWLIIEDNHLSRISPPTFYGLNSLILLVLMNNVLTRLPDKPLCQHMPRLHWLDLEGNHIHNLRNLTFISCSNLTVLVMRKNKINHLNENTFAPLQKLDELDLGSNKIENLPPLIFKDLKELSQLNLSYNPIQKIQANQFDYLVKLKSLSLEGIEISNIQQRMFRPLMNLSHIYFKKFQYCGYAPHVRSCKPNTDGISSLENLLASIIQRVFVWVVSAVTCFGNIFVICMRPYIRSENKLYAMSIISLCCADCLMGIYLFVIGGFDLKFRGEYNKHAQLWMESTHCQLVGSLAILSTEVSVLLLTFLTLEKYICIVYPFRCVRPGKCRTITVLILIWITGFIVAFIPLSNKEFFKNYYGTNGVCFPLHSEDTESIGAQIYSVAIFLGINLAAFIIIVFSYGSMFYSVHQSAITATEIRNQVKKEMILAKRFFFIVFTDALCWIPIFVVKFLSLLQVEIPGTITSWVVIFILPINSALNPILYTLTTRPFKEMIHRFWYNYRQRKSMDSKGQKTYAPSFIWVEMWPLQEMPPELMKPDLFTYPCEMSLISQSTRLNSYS

[4] = biological target: T1, Relaxin receptor 1 (Homo sapiens); assay: Agonist activity at human RXFP1 expressed in human OVCAR-5 cells assessed as intracellular cAMP accumulation by measuring maximal efficacy incubated for 30 mins by HTRF assay relative to control; format: functional, cell-based; details: filed as agonist
Relaxin receptor 1 [5] = biological target: T2, Relaxin receptor 1 (Homo sapiens, UniProt Q9HBX9); assay: Agonist activity at human RXFP1 expressed in 2%HSA treated human OVCAR-5 cells assessed as intracellular cAMP accumulation incubated for 30 mins with 2% HSA pretreated compound by HTRF assay; format: functional, cell-based
T2 sequence (Q9HBX9 whole entry): T1 sequence (whole entry)

Relaxin receptor 1 [6] = biological target: T2, Relaxin receptor 1; assay: Agonist activity at human RXFP1 expressed in human OVCAR-5 cells assessed as intracellular cAMP accumulation incubated for 30 mins by HTRF assay; format: functional, cell-based
[7] = Half-life in male Sprague-Dawley rat at 1 mg/kg, iv measured after 198 hrs by LC-HRMS analysis; format: ADME, organism-based; details: in vivo

Row | Compound | Emax at 0.5 h, 10 µM [1] | EC50 at 30 min [2] | Emax [3] | Emax [4] | EC50 (Relaxin receptor 1 [5]) | EC50 (Relaxin receptor 1 [6]) | half-life [7]
1 | CC[C@H](C)[C@H](NC(=O)[C@H](Cc1ccccc1)NC(=O)[C@H](CCC(=O)O)NC(=O)[C@H](CCCCN)NC(=O)[C@H](C)NC(=O)[C@H](C)NC(=O)[C@H](CCC(N)=O)NC(=O)CNC(=O)[C@H](CCC(=O)O)NC(=O)[C@H](CC(C)C)NC(=O)[C@H](Cc1ccc(O)cc1)NC(=O)[C@H](CO)NC(=O)[C@H](CO)NC(=O)[C@@H](NC(=O)[C@H](CC(=O)O)NC(=O)[C@H](CO)NC(=O)[C@@H](NC(=O)[C@H](Cc1ccccc1)NC(=O)[C@@H](NC(=O)CNC(=O)[C@H](CCC(=O)O)NC(=O)[C@H](C)NC(=O)[C@@H](N)Cc1c[nH]cn1)[C@@H](C)O)[C@@H](C)O)C(C)C)C(=O)N[C@@H](C)C(=O)N[C@@H](Cc1c[nH]c2ccccc12)C(=O)N[C@@H](CC(C)C)C(=O)N[C@H](C(=O)N[C@@H](CCCCN)C(=O)NCC(=O)N[C@@H](CCCNC(=N)N)C(N)=O)C(C)C | 2.5% | […] | – | – | – | – | –
2 | CCCCCCCCCCCCCCCC(=O)N[C@@H](CCC(=O)N[C@@H](CCC(=O)N[C@@H](CCC(=O)NC(=O)CCOCCOCCOCCOCCOCCOCCOCCOCCOCCOCCOCCOCCNCCCC[C@H](NC(=O)[C@H](C)NC(=O)[C@H](CCCNC(=N)N)NC(=O)[C@@H](NC(=O)[C@H](CCCCN)NC(=O)[C@H](CCC(=O)O)NC(=O)[C@H](CCCNC(=N)N)NC(=O)CNC(=O)[C@H](CCC(=O)O)NC(=O)[C@H](CC(C)C)NC(C)=O)C(C)C)C(=O)N[C@H](C(=O)NC(C)(C)C(=O)NC(C)(C)C(=O)N[C@@H](CCC(=O)O)C(=O)NCC(=O)N[C@@H](CCCC)C(=O)N[C@@H](CO)C(=O)N[C@H](C(=O)N[C@@H](Cc1c[nH]c2ccccc12)C(=O)N[C@@H](CO)C(=O)NC(C)(C)C(=O)N[C@@H](CCCNC(=N)N)C(=O)N[C@@H](CCCCN)C(=O)N[C@@H](CCCCNC(C)=O)C(N)=O)[C@@H](C)O)[C@@H](C)CC)C(=O)O)C(=O)O)C(=O)O | 59.7% | 2420 nM | 73% | 78% | 132 nM | 6.2 nM | –
3 | CCCCCCCCCCCCCCCCCC(=O)N[C@@H](CCC(=O)N[C@@H](CCC(=O)N[C@@H](CCC(=O)NCCCOCCOCCOCCCNC(=O)CCC(=O)NCCCOCCOCCOCCCNC(=O)CCC(=O)NCCCOCCOCCOCCCNC(=O)CCC(=O)NCCCC[C@H](NC(=O)CNC(=O)[C@H](CCC(=O)O)NC(=O)C(C)(C)NC(=O)C(C)(C)NC(=O)[C@@H](NC(=O)[C@H](CCCCNC(C)=O)NC(=O)[C@H](C)NC(=O)[C@H](CCCNC(=N)N)NC(=O)[C@@H](NC(=O)[C@H](CCCCN)NC(=O)[C@H](CCC(=O)O)NC(=O)[C@H](CCCNC(=N)N)NC(=O)CNC(=O)[C@H](CCC(=O)O)NC(=O)[C@H](CC(C)C)NC(C)=O)C(C)C)[C@@H](C)CC)C(=O)N[C@@H](CO)C(=O)N[C@H](C(=O)N[C@@H](Cc1c[nH]c2ccccc12)C(=O)N[C@@H](CO)C(=O)NC(C)(C)C(=O)N[C@@H](CCCNC(=N)N)C(=O)N[C@@H](CCCCN)C(=O)N[C@@H](CCCCNC(C)=O)C(N)=O)[C@@H](C)O)C(=O)O)C(=O)O)C(=O)O (Ac-LEGREKVRAK(Ac)I[Aib][Aib]EGK([Suc-X3])STWS[Aib]RKK(Ac)-NH2) | 70% | 6430 nM | 97% | 96% | 10.8 nM | 0.2 nM | 5.13 h
